The subject of test [1] is LH concentration in the blood. The test is described as follows: In vivo LH inhibition in male castrate rats. Also on record: species or system rat. Conditions: AUC of log(LHt/LHi) over 24 hours, 30 ug/kg subcutaneous bolus. As to the method: The compound to be tested is administered at 30 μg/kg subcutaneously by bolus injection to male castrate rats and blood samples are collected periodically over 24 hours. The AUC (area under the curve) of the LH supression data as a function of time is calculated using the formula log (LHt /LHi) wherein LHt is the LH concentration in the blood at time t and LHi is the initial baseline value for the concentration of LH in the blood. The AUC values are negative numbers.

In a further test the target is T1, LHRH receptors (Rattus norvegicus, UniProt P30969).
T1 sequence (P30969 1-327): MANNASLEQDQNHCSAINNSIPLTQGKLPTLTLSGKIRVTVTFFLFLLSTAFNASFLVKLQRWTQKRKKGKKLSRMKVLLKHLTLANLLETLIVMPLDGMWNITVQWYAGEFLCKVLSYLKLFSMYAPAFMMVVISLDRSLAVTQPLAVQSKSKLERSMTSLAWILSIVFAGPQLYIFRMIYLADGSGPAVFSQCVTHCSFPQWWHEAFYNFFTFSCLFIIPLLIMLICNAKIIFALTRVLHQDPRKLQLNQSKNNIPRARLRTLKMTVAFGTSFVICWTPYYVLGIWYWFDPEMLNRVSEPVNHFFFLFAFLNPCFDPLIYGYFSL
The test is described as follows: Radioligand receptor binding assay, rat pituitary membranes. Conditions: radioiodinated [D-Leu6-des Gly10]-LHRH ethyl amide 50 pM, 2 hours at 4° C., read-out: Receptor Binding pkI (converted). As to the method: The radioligand (50 pM), receptors, and compounds to be tested are coincubated for 2 hours at 4° C. Bound ligand is separated from free ligand via centrifugation and aspiration.

Here are results for 14 molecules from patent US5110904A (Abbott Laboratories, priority 1990, dated 1992).

Starred links: 1 amine or outer side, 2 acyl side, 3 side chain; linkers in the order of their positions; H or OH if unused. Non-standard residues stand in square brackets, D forms with d. Residues, ends and D or L forms follow the SMILES beside them. Groups on a side chain read outwards from the residue. *: point of attachment. dAla(4-thiazolyl) = N[C@H](Cc1cscn1)C(=O)O; dPhe(4-Cl) = N[C@H](Cc1ccc(Cl)cc1)C(=O)O; 1Nal = N[C@@H](Cc1cccc2ccccc12)C(=O)O; d1Nal = N[C@H](Cc1cccc2ccccc12)C(=O)O; d2Nal = N[C@H](Cc1ccc2ccccc2c1)C(=O)O; Lys(iPr) = CC(C)NCCCC[C@H](N)C(=O)O; NMeY = CN[C@@H](Cc1ccc(O)cc1)C(=O)O; Piperazinyl(4-Me) = CN1CCN(*)CC1; d3Pal = N[C@H](Cc1cccnc1)C(=O)O; Cha = N[C@@H](CC1CCCCC1)C(=O)O; d2Thi = N[C@H](Cc1cccs1)C(=O)O; NMeL = CN[C@@H](CC(C)C)C(=O)O; pGlu = O=C1CC[C@@H](C(=O)O)N1; Nicotinoyl = O=C(c1cccnc1)*; NMeS = CN[C@@H](CO)C(=O)O; CO = O=C([*:1])[*:2]; azaGly = NNC(=O)O; Sar = CNCC(=O)O

For `CC(=O)N[C@H](Cc1ccc2ccccc2c1)C(=O)N[C@H](Cc1ccc(Cl)cc1)C(=O)N[C@H](Cc1cccnc1)C(=O)N[C@@H](CO)C(=O)N(C)[C@@H](Cc1ccc(O)cc1)C(=O)N[C@H](CCCCNC(=O)c1cccnc1)C(=O)N(C)[C@@H](CC(C)C)C(=O)N[C@@H](CCCCNC(C)C)C(=O)N1CCC[C@H]1C(=O)N[C@H](C)C(N)=O` [Ex. 67, N-Ac-D-2-Nal-D-4-Cl-Phe-D-3-Pal-Ser-N-Me-Tyr-D-Lys(N-epsilon-nicotinyl)-N-Me-Leu-Lys(N-epsilon-isopropyl)-Pro-D-AlaNH2] (Ac-[d2Nal][dPhe(4-Cl)][d3Pal]S[NMeY][dK](Nicotinoyl)[NMeL][Lys(iPr)]P[dA]-NH2), in test [1], the “AUC (24 hr. after 30 ug/kg)” value was -400. In addition, the Ki on LHRH receptors is 0.0302 nM.

In the case of `CC(=O)NNC(=O)N[C@H](Cc1ccc(Cl)cc1)C(=O)N[C@H](Cc1cccc2ccccc12)C(=O)N[C@@H](CO)C(=O)N(C)[C@@H](Cc1ccc(O)cc1)C(=O)N[C@H](CCCCNC(=O)c1cccnc1)C(=O)N[C@@H](CC(C)C)C(=O)N[C@@H](CCCCNC(C)C)C(=O)N1CCC[C@H]1C(=O)N[C@H](C)C(N)=O` [Ex. 65, N-Ac-alpha-Azagly-D-4-Cl-Phe-D-1-Nal-Ser-N-Me-Tyr-D-Lys(N-epsilon-nicotinyl)-Leu-Lys(N-epsilon-isopropyl)-Pro-D-AlaNH2] (Ac-[azaGly][dPhe(4-Cl)][d1Nal]S[NMeY][dK](Nicotinoyl)L[Lys(iPr)]P[dA]-NH2), the “AUC (24 hr. after 30 ug/kg)” value in test [1] is recorded as -1114. Besides, the Ki at LHRH receptors was 0.0575 nM.

Consider `CC(=O)N[C@H](Cc1ccc2ccccc2c1)C(=O)N[C@H](Cc1ccc(Cl)cc1)C(=O)N[C@H](Cc1cscn1)C(=O)N[C@@H](CO)C(=O)N(C)[C@@H](Cc1ccc(O)cc1)C(=O)N[C@H](CCCCNC(=O)c1cccnc1)C(=O)N[C@@H](CC(C)C)C(=O)N[C@@H](CCCCNC(C)C)C(=O)N1CCC[C@H]1C(=O)N[C@H](C)C(N)=O` [Ex. 43, N-Ac-D-2-Nal-D-4-Cl-Phe-D-4-Thiaz-Ser-N-Me-Tyr-D-Lys-(N-epsilon-nicotinyl)-Leu-Lys(N-epsilon-isopropyl)-Pro-D-AlaNH2] (Ac-[d2Nal][dPhe(4-Cl)][dAla(4-thiazolyl)]S[NMeY][dK](Nicotinoyl)L[Lys(iPr)]P[dA]-NH2), for which the “AUC (24 hr. after 30 ug/kg)” value in test [1] is given as -337. Also, the Ki on LHRH receptors was 0.0339 nM.

As to `CC(=O)N[C@H](Cc1ccc2ccccc2c1)C(=O)N[C@H](Cc1ccc(Cl)cc1)C(=O)N[C@H](Cc1cccnc1)C(=O)N[C@@H](CO)C(=O)N(C)[C@@H](Cc1ccc(O)cc1)C(=O)N[C@H](CCCCNC(=O)c1cccnc1)C(=O)N[C@@H](CC(C)C)C(=O)N[C@@H](CCCCNC(C)C)C(=O)N1CCC[C@H]1C(=O)N(C)CC(N)=O` [Ex. 44, N-Ac-D-2-Nal-D-4-Cl-Phe-D-3-Pal-Ser-N-Me-Tyr-D-Lys(N-epsilon-nicotinyl)-Leu-Lys(N-epsilon-isopropyl)-Pro-SarNH2] (Ac-[d2Nal][dPhe(4-Cl)][d3Pal]S[NMeY][dK](Nicotinoyl)L[Lys(iPr)]P[Sar]-NH2), the “AUC (24 hr. after 30 ug/kg)” value in test [1] is -571. The Ki at LHRH receptors is 0.0331 nM.

In the case of `CC(=O)N[C@H](Cc1ccc(Cl)cc1)C(=O)N[C@H](Cc1ccc(Cl)cc1)C(=O)N[C@H](Cc1cccc2ccccc12)C(=O)N[C@@H](CO)C(=O)N(C)[C@@H](Cc1ccc(O)cc1)C(=O)N[C@H](CCCCN)C(=O)N[C@@H](CC(C)C)C(=O)N[C@@H](CCCNC(=N)N)C(=O)N1CCC[C@H]1C(=O)N[C@H](C)C(N)=O` [Ex. 46, N-Ac-D-4-Cl-Phe-D-4-Cl-Phe-D-1-Nal-Ser-N-Me-Tyr-D-Lys-Leu-Arg-Pro-D-AlaNH2] (Ac-[dPhe(4-Cl)][dPhe(4-Cl)][d1Nal]S[NMeY][dK]LRP[dA]-NH2), the “AUC (24 hr. after 30 ug/kg)” value in test [1] is given as -1513.

Turning to `CCNC(=O)[C@@H]1CCCN1C(=O)[C@H](CCCN=C(N)N)NC(=O)[C@H](CC(C)C)NC(=O)[C@@H](CC(C)C)NC(=O)[C@H](Cc1ccc(O)cc1)NC(=O)[C@H](CO)N(C)C(=O)[C@H](Cc1c[nH]c2ccccc12)NC(=O)[C@H](Cc1c[nH]cn1)NC(=O)[C@@H]1CCC(=O)N1` [Ex. 1, (pyro)Glu-His-Trp-N-Me-Ser-Tyr-D-Leu-Leu-Arg-Pro-NHEt] ([pGlu]HW[NMeS]Y[dL]LRP-NHEt), the Ki at LHRH receptors is 1.17 nM.

With `CC(=O)NCC(=O)N[C@H](Cc1ccc(Cl)cc1)C(=O)N[C@H](Cc1cccc2ccccc12)C(=O)N[C@@H](CO)C(=O)N(C)[C@@H](Cc1ccc(O)cc1)C(=O)N[C@H](CCCCN)C(=O)N[C@@H](CC(C)C)C(=O)N[C@@H](CCCNC(=N)N)C(=O)N1CCC[C@H]1C(=O)N[C@H](C)C(N)=O` [Ex. 53, N-Ac-Gly-D-4-Cl-Phe-D-1-Nal-Ser-N-Me-Tyr-D-Lys-Leu-Arg-Pro-D-AlaNH2] (Ac-G[dPhe(4-Cl)][d1Nal]S[NMeY][dK]LRP[dA]-NH2), the Ki on LHRH receptors was 0.0132 nM.

`CC(=O)N[C@H](Cc1ccc(Cl)cc1)C(=O)N[C@H](Cc1ccc(Cl)cc1)C(=O)N[C@H](Cc1ccc2ccccc2c1)C(=O)N[C@@H](CO)C(=O)N(C)[C@@H](Cc1ccc(O)cc1)C(=O)N[C@H](CCCCNC(=O)c1cccnc1)C(=O)N(C)[C@@H](CC(C)C)C(=O)N[C@@H](CCCNC(=N)N)C(=O)N1CCC[C@H]1C(=O)N[C@H](C)C(N)=O` [Ex. 57, N-Ac-D-4-Cl-Phe-D-4-Cl-Phe-D-2-Nal-Ser-N-Me-Tyr-D-Lys(N-epsilon-nicotinyl)- N-Me-Leu-Arg-Pro-D-AlaNH2] (Ac-[dPhe(4-Cl)][dPhe(4-Cl)][d2Nal]S[NMeY][dK](Nicotinoyl)[NMeL]RP[dA]-NH2): the Ki at LHRH receptors is 0.372 nM.

Turning to `CC(=O)NCC(=O)N[C@H](Cc1ccc(Cl)cc1)C(=O)N[C@H](Cc1cccnc1)C(=O)N[C@@H](CO)C(=O)N(C)[C@@H](Cc1ccc(O)cc1)C(=O)N[C@H](CCCCNC(=O)c1cccnc1)C(=O)N[C@@H](CC(C)C)C(=O)N[C@@H](CCCCNC(C)C)C(=O)N1CCC[C@H]1C(=O)N[C@H](C)C(N)=O` [Ex. 42, N-Ac-Gly-D-4-Cl-Phe-D-3-Pal-Ser-N-Me-Tyr-D-Lys-(N-epsilon-nicotinyl)-Leu-Lys(N-epsilon-isopropyl)-Pro-D-AlaNH2] (Ac-G[dPhe(4-Cl)][d3Pal]S[NMeY][dK](Nicotinoyl)L[Lys(iPr)]P[dA]-NH2), the Ki on LHRH receptors was 0.603 nM.

Take `CC(=O)N(C)CC(=O)N[C@H](Cc1ccc(Cl)cc1)C(=O)N[C@@H](Cc1cccc2ccccc12)C(=O)N[C@@H](CO)C(=O)N(C)[C@@H](Cc1ccc(O)cc1)C(=O)N[C@H](CCCCN)C(=O)N[C@@H](CC(C)C)C(=O)N[C@@H](CCCNC(=N)N)C(=O)N1CCC[C@H]1C(=O)N[C@H](C)C(N)=O` [Ex. 52, N-Ac-Sar-D-4-Cl-Phe-1-Nal-Ser-N-Me-Tyr-D-Lys-Leu-Arg-Pro-D-AlaNH4] (Ac-[Sar][dPhe(4-Cl)][1Nal]S[NMeY][dK]LRP[dA]-NH2): on LHRH receptors, the Ki was 0.017 nM.

As to `CC(=O)N(C)CC(=O)N[C@H](Cc1ccc(Cl)cc1)C(=O)N[C@H](Cc1cccc2ccccc12)C(=O)N[C@@H](CO)C(=O)N(C)[C@@H](Cc1ccc(O)cc1)C(=O)N[C@H](CCCCNC(=O)c1cccnc1)C(=O)N[C@@H](CC(C)C)C(=O)N[C@@H](CCCNC(=N)N)C(=O)N1CCC[C@H]1C(=O)N[C@H](C)C(N)=O` [Ex. 51, N-Ac-Sar-D-4-Cl-Phe-D-1-Nal-Ser-N-Me-Tyr-D-Tys(N-epsilon-nicotinyl)-Leu-Arg-Pro-D-AlaNH2] (Ac-[Sar][dPhe(4-Cl)][d1Nal]S[NMeY][dK](Nicotinoyl)LRP[dA]-NH2), the Ki on LHRH receptors was 0.0269 nM.

As for `CC(=O)N[C@H](Cc1ccc(Cl)cc1)C(=O)N[C@H](Cc1ccc(Cl)cc1)C(=O)N[C@H](Cc1cccs1)C(=O)N[C@@H](CO)C(=O)N(C)[C@@H](Cc1ccc(O)cc1)C(=O)N[C@H](CCCCN)C(=O)N(C)[C@@H](CC(C)C)C(=O)N[C@@H](CCCNC(=N)N)C(=O)N1CCC[C@H]1C(=O)N[C@H](C)C(N)=O` [Ex. 45, N-Ac-D-4-Cl-Phe-D-4-Cl-Phe-D-2-Thia-Ser-N-Me-Tyr-D-Lys-N-Me-Leu-Arg-Pro-D-AlaNH4] (Ac-[dPhe(4-Cl)][dPhe(4-Cl)][d2Thi]S[NMeY][dK][NMeL]RP[dA]-NH2), the Ki at LHRH receptors is 0.0138 nM.

Consider `CC(=O)N[C@H](Cc1ccc2ccccc2c1)C(=O)N[C@H](Cc1ccc(Cl)cc1)C(=O)N[C@H](Cc1cccnc1)C(=O)N[C@@H](CO)C(=O)N(C)[C@@H](Cc1ccc(O)cc1)C(=O)N[C@H](CCCCNC(=O)c1cccnc1)C(=O)N[C@@H](CC1CCCCC1)C(=O)N[C@@H](CCCNC(=N)N)C(=O)N1CCC[C@H]1C(=O)N[C@H](C)C(N)=O` [Ex. 66, N-Ac-D-2-Nal-D-4-Cl-Phe-D-3-Pal-Ser-N-Me-Tyr-D-Lys(N-epsilon-nicotinyl)-Cha-Arg-Pro-D-AlaNH2] (Ac-[d2Nal][dPhe(4-Cl)][d3Pal]S[NMeY][dK](Nicotinoyl)[Cha]RP[dA]-NH2), for which the Ki at LHRH receptors is 0.0141 nM.

Consider `CC(=O)N[C@H](Cc1ccc2ccccc2c1)C(=O)N[C@H](Cc1ccc(Cl)cc1)C(=O)N[C@H](Cc1cccnc1)C(=O)N[C@@H](CO)C(=O)N(C)[C@@H](Cc1ccc(O)cc1)C(=O)N[C@H](CCCCNC(=O)N1CCN(C)CC1)C(=O)N[C@@H](CC(C)C)C(=O)N[C@@H](CCCCNC(C)C)C(=O)N1CCC[C@H]1C(=O)N[C@H](C)C(N)=O` [Ex. 70, N-Ac-D-2--Nal-D-4-Cl-Phe-D-3-Pal-Ser-N-Me-Tyr-D-Lys(N-epsilon-CO-NMePip)-Leu-Lys(N-epsilon-isopropyl)-Pro-D-AlaNH2] (Ac-[d2Nal][dPhe(4-Cl)][d3Pal]S[NMeY][dK]([CO-Piperazinyl(4-Me)])L[Lys(iPr)]P[dA]-NH2), for which the Ki at LHRH receptors is 0.012 nM.
